According to patent US10905123B2, “Herbicidal compounds” (Syngenta Participations AG, priority 2015, dated 2021):

Assays:
Format in all cases: in vivo
Conditions in all cases: evaluated after 13 days
[1] = system: Alopecurus myosuroides (ALOMY); assay: B1 pre-emergence herbicidal activity
Description: (§1) Seeds of a variety of test species were sown in standard soil in pots: Triticum aestivium (TRZAW), Oryza sativa (ORYSA), Avena fatua (AVEFA), Alopecurus myosuroides (ALOMY), Echinochloa crus-galli (ECHCG), Lolium perenne (LOLPE). After cultivation for one day (pre-emergence) under controlled conditions in a glasshouse (at 24/16° C., day/night; 14 hours light; 65% humidity), the plants were sprayed with an aqueous spray solution derived from the formulation of the technical active ingredient in acetone/water (50:50) solution containing 0.5% Tween 20 (polyoxyethelyene sorbitan monolaurate, CAS RN 9005-64-5). The test plants were then grown in a glasshouse under controlled conditions (at 24/16° C., day/night; 14 hours light; 65% humidity) and watered twice daily. After 13 days, the test was evaluated (5=total damage to plant; 0=no damage to plant).

Avena fatua (AVEFA) [2] = assay: B1 pre-emergence herbicidal activity
Description: as §1

[3] = system: Echinochloa crus-galli (ECHCG); assay: B1 pre-emergence herbicidal activity
Description: as §1

Lolium perenne (LOLPE) [4] = assay: B1 pre-emergence herbicidal activity
Description: as §1

Oryza sativa (ORYSA) [5] = assay: B1 pre-emergence herbicidal activity
Description: as §1

[6] = system: Triticum aestivium (TRZAW); assay: B1 pre-emergence herbicidal activity
Description: as §1

[7] = system: Alopecurus myosuroides (ALOMY); assay: B2 post-emergence herbicidal activity
Description: (§2) Seeds of a variety of test species were sown in standard soil in pots: Triticum aestivium (TRZAW), Oryza sativa (ORYSA), Avena fatua (AVEFA), Alopecurus myosuroides (ALOMY), Echinochloa crus-galli (ECHCG), Lolium perenne (LOLPE). After 8 days cultivation (post-emergence) under controlled conditions in a glasshouse (at 24/16° C., day/night; 14 hours light; 65% humidity), the plants were sprayed with an aqueous spray solution derived from the formulation of the technical active ingredient in acetone/water (50:50) solution containing 0.5% Tween 20 (polyoxyethelyene sorbitan monolaurate, CAS RN 9005-64-5). The test plants were then grown in a glasshouse under controlled conditions (at 24/16° C., day/night; 14 hours light; 65% humidity) and watered twice daily. After 13 days, the test was evaluated (5=total damage to plant; 0=no damage to plant).

Avena fatua (AVEFA) [8] = assay: B2 post-emergence herbicidal activity
Description: as §2

[9] = system: Echinochloa crus-galli (ECHCG); assay: B2 post-emergence herbicidal activity
Description: as §2

Lolium perenne (LOLPE) [10] = assay: B2 post-emergence herbicidal activity
Description: as §2

Oryza sativa (ORYSA) [11] = assay: B2 post-emergence herbicidal activity
Description: as §2

[12] = system: Triticum aestivium (TRZAW); assay: B2 post-emergence herbicidal activity
Description: as §2

SMILES | Control of ALOMY after pre-emergence application (damage score 0-5) ([1]; Rate 1000 g/ha) | Control of AVEFA after pre-emergence application (damage score 0-5) (Avena fatua (AVEFA) [2]; Rate 1000 g/ha) | Control of ECHCG after pre-emergence application (damage score 0-5) ([3]; Rate 1000 g/ha) | Control of LOLPE after pre-emergence application (damage score 0-5) (Lolium perenne (LOLPE) [4]; Rate 1000 g/ha) | Control of ORYSA after pre-emergence application (damage score 0-5) (Oryza sativa (ORYSA) [5]; Rate 1000 g/ha) | Control of TRZAW after pre-emergence application (damage score 0-5) ([6]; Rate 1000 g/ha) | Control of ALOMY after post-emergence application (damage score 0-5) ([7]; Rate 1000 g/ha) | Control of AVEFA after post-emergence application (damage score 0-5) (Avena fatua (AVEFA) [8]; Rate 1000 g/ha) | Control of ECHCG after post-emergence application (damage score 0-5) ([9]; Rate 1000 g/ha) | Control of LOLPE after post-emergence application (damage score 0-5) (Lolium perenne (LOLPE) [10]; Rate 1000 g/ha) | Control of ORYSA after post-emergence application (damage score 0-5) (Oryza sativa (ORYSA) [11]; Rate 1000 g/ha) | Control of TRZAW after post-emergence application (damage score 0-5) ([12]; Rate 1000 g/ha) | also measured
CCOC(=O)N(C)c1cn(-c2cncc(F)c2)nc1C(F)(F)F [Compound A47] | 0 | 0 | 1 | 0 | 0 | 0 | 1 | 2 | 4 | 0 | 0 | 1 | –
CN(C(=O)OC(C)(C)C)c1cc(-c2cncnc2)nn1C [Compound A14] | 1 | 3 | 3 | 0 | 0 | 1 | 1 | 4 | 4 | 3 | 0 | 1 | –
Cc1nn(-c2cncnc2)cc1N(C)C(=O)OC(C)(C)C [Compound A5, tert-butyl N-methyl-N-(3-methyl-1-pyrimidin-5-yl-pyrazol-4-yl)carbamate] | 1 | 4 | 5 | 1 | 2 | 4 | 4 | 0 | 5 | 2 | 5 | 2 | –
CN(C(=O)N(C)C(C)(C)C)c1cn(-c2cncnc2)nc1C(F)(F)F [Compound A51] | 0 | 0 | 1 | 0 | 1 | 0 | 1 | 2 | 2 | 1 | 0 | 2 | –
CC(C)(C)OC(=O)Nc1cn(-c2cccnc2)nc1C(F)(F)F [Compound A7] | – | – | – | – | – | – | – | – | – | – | – | – | Control of ALOMY after pre-emergence application (damage score 0-5) ([1]; Rate 500 g/ha): 0; Control of AVEFA after pre-emergence application (damage score 0-5) (Avena fatua (AVEFA) [2]; Rate 500 g/ha): 0; Control of ECHCG after pre-emergence application (damage score 0-5) ([3]; Rate 500 g/ha): 2; Control of LOLPE after pre-emergence application (damage score 0-5) (Lolium perenne (LOLPE) [4]; Rate 500 g/ha): 0; Control of ORYSA after pre-emergence application (damage score 0-5) (Oryza sativa (ORYSA) [5]; Rate 500 g/ha): 1; Control of TRZAW after pre-emergence application (damage score 0-5) ([6]; Rate 500 g/ha): 0; Control of ALOMY after post-emergence application (damage score 0-5) ([7]; Rate 500 g/ha): 2; Control of AVEFA after post-emergence application (damage score 0-5) (Avena fatua (AVEFA) [8]; Rate 500 g/ha): 2; Control of ECHCG after post-emergence application (damage score 0-5) ([9]; Rate 500 g/ha): 4; Control of LOLPE after post-emergence application (damage score 0-5) (Lolium perenne (LOLPE) [10]; Rate 500 g/ha): 1; Control of ORYSA after post-emergence application (damage score 0-5) (Oryza sativa (ORYSA) [11]; Rate 500 g/ha): 1; Control of TRZAW after post-emergence application (damage score 0-5) ([12]; Rate 500 g/ha): 0
Cc1nn(-c2cncnc2)cc1N(C)C1=NCCCCO1 [Compound A53] | 0 | 0 | 0 | 0 | 0 | 0 | 0 | 0 | 0 | 1 | 0 | 0 | –
CN(C(=O)OC(C)(C)C)c1c(Cl)c(-c2cccnc2)nn1C [Compound A39] | 0 | 4 | 3 | 0 | 1 | 0 | 2 | 1 | 4 | 3 | 1 | 0 | –
CCN(C(=O)OC(C)(C)C)c1cn(-c2cncc(F)c2)nc1C(F)(F)F [Compound A55] | 0 | 0 | 0 | 0 | 0 | 0 | 0 | 0 | 0 | 0 | 0 | 0 | –
CN(C(=O)OC(C)(C)C)c1cc(-c2cccnc2)nn1C [Compound A1, tert-butyl N-methyl-N-[2-methyl-5-(3-pyridyl)pyrazol-3-yl]carbamate] | 0 | 1 | 3 | 1 | 1 | 0 | 3 | 1 | 5 | 1 | 4 | 1 | –
CN(C(=O)NC(C)(C)C)c1cn(-c2cncc(F)c2)nc1C(F)(F)F [Compound A19] | 0 | 0 | 2 | 1 | 0 | 0 | 1 | 1 | 4 | 1 | 0 | 0 | –
